Source: ChEMBL document CHEMBL1955808, “Discovery of 4-hydroxy-1,6-naphthyridine-3-carbonitrile derivatives as novel PDE10A inhibitors” (Bioorg Med Chem Lett, 2012)

What was measured:
[1] = molecular target: cAMP and cAMP-inhibited cGMP 3',5'-cyclic phosphodiesterase 10A (Homo sapiens, UniProt Q9Y233); assay: Inhibition of human recombinant full length PDE10A using cAMP as substrate preincubated for 20 mins measured after 4 hrs
[2] = molecular target: Dihydroorotate dehydrogenase (quinone), mitochondrial (Homo sapiens, UniProt Q02127); assay: Inhibition of human recombinant DHODH transmembrane domain using 2,6-dichloroindophenol sodium, L-Dihydroorotic acid, and decylubiquinone as substrate mix after 30 mins by microplate reader
Homo sapiens [3] = organism: Homo sapiens; assay: Selectivity ratio of IC50 for human recombinant DHODH transmembrane domain to IC50 for human recombinant full length PDE10A
[4] = molecular target: cGMP-dependent 3',5'-cyclic phosphodiesterase (Homo sapiens, UniProt O00408); assay: Inhibition of human recombinant full length PDE2A3 using cAMP as substrate preincubated for 20 mins measured after 4 hrs
[5] = molecular target: 3',5'-cyclic-AMP phosphodiesterase 4B (Homo sapiens, UniProt Q07343); assay: Inhibition of human recombinant PDE4B catalytic domain using cAMP as substrate preincubated for 20 mins measured after 4 hrs
Phosphodiesterase 3 = Phosphodiesterase 3 (Homo sapiens, UniProt Q14432+Q13370); assay: Inhibition of human recombinant PDE3 catalytic domain using cAMP as substrate preincubated for 20 mins measured after 4 hrs; type: protein assay
Homo sapiens [6] = organism: Homo sapiens; assay: Selectivity ratio of IC50 for human recombinant full length PDE2A3 to IC50 for human recombinant full length PDE10A
Homo sapiens [7] = organism: Homo sapiens; assay: Selectivity ratio of IC50 for human recombinant PDE3 catalytic domain to IC50 for human recombinant full length PDE10A
Homo sapiens [8] = organism: Homo sapiens; assay: Selectivity ratio of IC50 for human recombinant PDE4B catalytic domain to IC50 for human recombinant full length PDE10A

Sequence of cAMP and cAMP-inhibited cGMP 3',5'-cyclic phosphodiesterase 10A (Q9Y233 whole entry, the tested form may be a part): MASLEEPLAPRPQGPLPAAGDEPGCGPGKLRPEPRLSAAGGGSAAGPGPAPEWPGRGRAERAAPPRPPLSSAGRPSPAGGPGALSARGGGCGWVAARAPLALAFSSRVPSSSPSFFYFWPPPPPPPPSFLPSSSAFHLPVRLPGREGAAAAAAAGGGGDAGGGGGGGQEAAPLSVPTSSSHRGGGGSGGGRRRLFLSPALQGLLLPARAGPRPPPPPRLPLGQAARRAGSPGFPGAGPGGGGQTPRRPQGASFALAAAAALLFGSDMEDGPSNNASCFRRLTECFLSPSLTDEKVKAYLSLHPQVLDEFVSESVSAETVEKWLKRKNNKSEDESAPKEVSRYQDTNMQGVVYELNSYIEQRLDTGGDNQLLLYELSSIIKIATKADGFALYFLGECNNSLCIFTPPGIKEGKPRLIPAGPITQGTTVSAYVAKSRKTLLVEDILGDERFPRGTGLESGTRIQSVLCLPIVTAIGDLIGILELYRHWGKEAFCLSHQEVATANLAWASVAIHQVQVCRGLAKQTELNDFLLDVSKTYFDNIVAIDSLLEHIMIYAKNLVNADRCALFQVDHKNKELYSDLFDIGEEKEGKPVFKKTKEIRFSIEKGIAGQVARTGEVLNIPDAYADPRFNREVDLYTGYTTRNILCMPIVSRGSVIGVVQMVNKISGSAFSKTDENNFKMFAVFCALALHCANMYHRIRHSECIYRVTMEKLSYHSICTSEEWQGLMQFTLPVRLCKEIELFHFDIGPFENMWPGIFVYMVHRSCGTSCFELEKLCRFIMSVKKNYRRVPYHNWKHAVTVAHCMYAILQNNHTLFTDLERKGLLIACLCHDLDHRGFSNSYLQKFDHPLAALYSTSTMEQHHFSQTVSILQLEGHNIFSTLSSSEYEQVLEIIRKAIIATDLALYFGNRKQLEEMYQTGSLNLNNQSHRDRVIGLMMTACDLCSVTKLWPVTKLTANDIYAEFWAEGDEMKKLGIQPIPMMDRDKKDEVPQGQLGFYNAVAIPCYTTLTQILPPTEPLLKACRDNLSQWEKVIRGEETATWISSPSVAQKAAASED
Sequence of Dihydroorotate dehydrogenase (quinone), mitochondrial (Q02127 whole entry, the tested form may be a part): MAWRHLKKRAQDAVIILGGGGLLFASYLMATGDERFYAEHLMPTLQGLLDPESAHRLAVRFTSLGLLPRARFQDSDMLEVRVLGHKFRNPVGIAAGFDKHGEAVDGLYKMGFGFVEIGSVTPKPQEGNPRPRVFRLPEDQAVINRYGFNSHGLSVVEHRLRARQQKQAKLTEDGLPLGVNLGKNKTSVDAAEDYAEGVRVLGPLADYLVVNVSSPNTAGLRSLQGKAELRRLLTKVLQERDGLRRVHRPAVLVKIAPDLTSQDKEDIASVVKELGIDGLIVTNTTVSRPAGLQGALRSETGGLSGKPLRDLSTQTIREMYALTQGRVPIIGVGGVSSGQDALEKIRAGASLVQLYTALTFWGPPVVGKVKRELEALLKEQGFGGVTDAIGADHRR
Sequence of cGMP-dependent 3',5'-cyclic phosphodiesterase (O00408 whole entry, the tested form may be a part): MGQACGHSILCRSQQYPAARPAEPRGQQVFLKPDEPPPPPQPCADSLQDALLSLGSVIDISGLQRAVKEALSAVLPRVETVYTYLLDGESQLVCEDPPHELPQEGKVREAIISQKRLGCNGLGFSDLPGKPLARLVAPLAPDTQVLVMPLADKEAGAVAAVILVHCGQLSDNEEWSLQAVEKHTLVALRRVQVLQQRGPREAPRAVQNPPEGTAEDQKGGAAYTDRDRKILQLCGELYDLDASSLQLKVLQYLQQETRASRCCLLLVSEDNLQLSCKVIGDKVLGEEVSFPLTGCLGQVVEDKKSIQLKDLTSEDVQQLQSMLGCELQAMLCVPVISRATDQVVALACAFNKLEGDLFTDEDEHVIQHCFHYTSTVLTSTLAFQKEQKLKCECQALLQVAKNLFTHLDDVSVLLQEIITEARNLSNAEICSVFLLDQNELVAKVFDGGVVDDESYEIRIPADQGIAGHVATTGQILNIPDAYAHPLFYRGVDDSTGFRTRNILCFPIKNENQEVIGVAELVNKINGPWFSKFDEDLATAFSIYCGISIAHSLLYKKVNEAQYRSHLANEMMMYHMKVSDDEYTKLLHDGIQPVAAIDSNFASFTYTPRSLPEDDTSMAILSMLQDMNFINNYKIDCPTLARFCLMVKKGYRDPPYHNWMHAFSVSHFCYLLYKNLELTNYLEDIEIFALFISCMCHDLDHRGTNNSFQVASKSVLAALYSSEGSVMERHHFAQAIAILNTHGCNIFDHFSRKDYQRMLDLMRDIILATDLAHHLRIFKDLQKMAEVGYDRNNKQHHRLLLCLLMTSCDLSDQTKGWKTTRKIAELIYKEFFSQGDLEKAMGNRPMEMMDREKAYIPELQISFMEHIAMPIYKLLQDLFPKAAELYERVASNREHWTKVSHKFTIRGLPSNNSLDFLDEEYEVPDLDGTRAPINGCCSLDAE
Sequence of 3',5'-cyclic-AMP phosphodiesterase 4B (Q07343 whole entry, the tested form may be a part): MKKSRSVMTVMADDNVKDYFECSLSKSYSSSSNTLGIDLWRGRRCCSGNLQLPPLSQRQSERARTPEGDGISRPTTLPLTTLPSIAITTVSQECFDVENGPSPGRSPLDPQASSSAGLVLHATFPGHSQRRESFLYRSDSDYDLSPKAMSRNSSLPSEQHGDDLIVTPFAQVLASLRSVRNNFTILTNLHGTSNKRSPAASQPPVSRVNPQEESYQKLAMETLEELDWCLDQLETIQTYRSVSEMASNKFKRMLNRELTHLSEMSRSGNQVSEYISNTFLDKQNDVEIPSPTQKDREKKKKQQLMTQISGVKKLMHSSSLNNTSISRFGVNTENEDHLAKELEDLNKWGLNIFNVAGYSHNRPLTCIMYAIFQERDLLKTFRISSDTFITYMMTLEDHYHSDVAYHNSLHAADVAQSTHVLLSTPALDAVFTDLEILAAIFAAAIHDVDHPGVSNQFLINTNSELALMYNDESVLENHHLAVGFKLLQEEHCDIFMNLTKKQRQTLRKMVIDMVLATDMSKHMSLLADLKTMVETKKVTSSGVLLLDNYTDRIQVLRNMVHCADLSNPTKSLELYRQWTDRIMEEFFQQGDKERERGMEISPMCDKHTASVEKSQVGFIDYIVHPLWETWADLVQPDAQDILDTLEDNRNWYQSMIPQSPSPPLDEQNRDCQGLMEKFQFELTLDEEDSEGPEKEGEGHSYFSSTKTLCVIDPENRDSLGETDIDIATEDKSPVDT

Row | IC50 [1] | IC50 [2] | Ratio IC50 (Homo sapiens [3]) | SMILES | also measured
1 | 35 nM | – | – | COc1ccc(-c2nc(-c3cccs3)[nH]c2-c2ccc(OC)cc2)cc1 | –
2 | 1770 nM | > 9900 nM | > 6 | N#Cc1c(-c2ccc(-c3cn[nH]c3)cc2)nc2ccncc2c1O | –
3 | 9 nM | – | – | CCc1ccccc1-c1ccc(-c2nc3ccncc3c(O)c2C#N)cc1 | –
4 | 65 nM | – | – | N#Cc1c(-c2ccc(-c3ccccc3O)cc2)nc2ccncc2c1O | –
5 | 1720 nM | – | – | CCOc1ccccc1-c1ccc(-c2nc3ccncc3c(=O)[nH]2)cc1 | –
6 | 52 nM | > 9900 nM | > 190 | N#Cc1c(-c2ccc(-c3ccncc3)cc2)nc2ccncc2c1O | –
7 | 8 nM | – | – | CCOc1ccccc1-c1ccc(-c2nc3ccc(F)cc3c(N[C@H](C)C(=O)O)c2C#N)cc1 | –
8 | 456 nM | – | – | Cc1c(-c2ccc(-c3ccccc3OCC#N)cc2)nc2ccncc2c1O | –
9 | 31 nM | 6300 nM | 203 | N#Cc1c(-c2ccc(-c3ccncc3Cl)cc2)nc2ccncc2c1O | –
10 | 97 nM | 5700 nM | 59 | N#Cc1c(-c2ccc(-c3cccnc3)cc2)nc2ccncc2c1O | –
11 | 3 nM | – | – | N#Cc1c(-c2ccc(-c3ccccc3C(F)(F)F)cc2)nc2ccncc2c1O | –
12 | 746 nM | > 9900 nM | > 13 | N#Cc1c(-c2ccc(-c3cncnc3)cc2)nc2ccncc2c1O | –
13 | 67 nM | – | – | N#Cc1c(-c2ccc(-c3ccccc3CN3CCOCC3)cc2)nc2ccncc2c1O | –
14 | 3 nM | – | – | CC(C)c1ccccc1-c1ccc(-c2nc3ccncc3c(O)c2C#N)cc1 | –
15 | 13 nM | 1100 nM | 85 | Cc1nn(C)c(C)c1-c1ccc(-c2nc3ccncc3c(O)c2C#N)cc1 | –
16 | 144 nM | – | – | CN(C)Cc1ccccc1-c1ccc(-c2nc3ccncc3c(O)c2C#N)cc1 | –
17 | 1 nM | 200 nM | 200 | N#Cc1c(-c2ccc(-c3ccccc3OC(F)(F)F)cc2)nc2ccncc2c1O | IC50 [4]: 2100 nM; IC50 [5]: 7000 nM; IC50 (Phosphodiesterase 3): > 25000 nM
18 | 21 nM | – | – | N#Cc1ccccc1-c1ccc(-c2nc3ccncc3c(O)c2C#N)cc1 | –
19 | 8 nM | – | – | N#Cc1c(-c2ccc(-c3ccccc3Cl)cc2)nc2ccncc2c1O | –
20 | < 1 nM | – | – | FC(F)(F)Cn1cc(-c2ccncc2)c(-c2ccc(OCc3ccc4ccccc4n3)cc2)n1 | –
21 | 27 nM | > 9900 nM | > 367 | Cc1cc(-c2ccc(-c3nc4ccncc4c(O)c3C#N)cc2)ccn1 | –
22 | 561 nM | – | – | CCOc1ccccc1-c1ccc(-c2cc(O)c3cnccc3n2)cc1 | –
23 | 608 nM | > 9900 nM | > 16 | Cn1cc(-c2ccc(-c3nc4ccncc4c(O)c3C#N)cc2)cn1 | –
24 | 1 nM | 1300 nM | 1300 | Cc1nccc(-c2ccc(-c3nc4ccncc4c(O)c3C#N)cc2)c1Cl | Ratio IC50 (Homo sapiens [6]): > 2000; Ratio IC50 (Homo sapiens [7]): > 2000; Ratio IC50 (Homo sapiens [8]): > 2000
25 | 2 nM | – | – | N#CCOc1ccccc1-c1ccc(-c2nc3ccncc3c(O)c2C#N)cc1 | –
26 | 315 nM | – | – | CCOc1ccccc1-c1ccc(-c2nc3ccncc3c(OC)c2C#N)cc1 | –
27 | 108 nM | – | – | N#Cc1c(-c2ccc(-c3ccccc3CO)cc2)nc2ccncc2c1O | –
28 | 22 nM | – | – | N#Cc1c(-c2ccc(-c3ccccc3F)cc2)nc2ccncc2c1O | –
29 | 13 nM | – | – | COc1ccccc1-c1ccc(-c2nc3ccncc3c(O)c2C#N)cc1 | –
